This passage reports EC50 results from patent US20100063065A1 (Inpharmatica Limited, priority 2005, published 2010).

The assay concerns the target T1, PPARδ (Homo sapiens, UniProt Q03181).
T1 construct: fused to amino acids 147-441 of PPARδ downstream of CMV promoter; expressed in transfected cells; host or cells: HEK293 cells, transiently transfected with pFACMV-PPARδ using Fugene
T1 sequence (Q03181 147-441): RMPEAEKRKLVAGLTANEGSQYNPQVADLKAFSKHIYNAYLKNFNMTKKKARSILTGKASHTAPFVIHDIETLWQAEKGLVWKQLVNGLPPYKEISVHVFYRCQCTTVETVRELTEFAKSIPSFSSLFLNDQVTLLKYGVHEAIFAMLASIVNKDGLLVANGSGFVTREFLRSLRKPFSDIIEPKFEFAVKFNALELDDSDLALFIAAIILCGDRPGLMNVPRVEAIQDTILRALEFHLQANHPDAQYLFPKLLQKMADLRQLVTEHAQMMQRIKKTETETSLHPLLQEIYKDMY
As to the kind of experiment: Transactivation assay (PPARδ GAL4 assay) in transiently transfected HEK293 cells. Particulars: luciferase reporter, Table 2. It counts as cell-based. In outline:
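Luciferase luminescence after 24 h compound treatment (0-30 μM final, OptiMEM, 37° C./5% CO2) gave EC50 by sigmoidal fitting, with activity normalised to GW501516 as percent. Reporter system: transiently transfected HEK293 expressing GAL4 DNA-binding domain fused to human PPARδ aa 147-441, plus 5×GAL4-driven luciferase.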

For orientation: EC50 means the concentration at which the effect is half-maximal. Read a high EC50 as a less potent agent. The molecule `CCCc1cc(C(=O)c2ccc(OC(F)(F)F)cc2)c(NC(=O)CSCC(=O)O)s1` [Example 132, {[5-Propyl-3-(4-trifluoromethoxy-benzoyl)-thiophen-2-ylcarbamoyl]-methylsulfanyl}-acetic acid] registered an EC50 of under 100 nM.
Under `CC(C)c1cc(C(=O)c2ccc(OC(F)(F)F)cc2)c(NC(=O)CSCC(=O)O)s1` [Example 133, {[5-Isopropyl-3-(4-trifluoromethoxy-benzoyl)-thiophen-2-ylcarbamoyl]-methylsulfanyl}-acetic acid] stands under 100 nM.
The value for `CCC(C)c1cc(C(=O)c2ccc(OC(F)(F)F)cc2)c(NC(=O)CSCC(=O)O)s1` (centres unmarked) [Example 134, {[5-sec-Butyl-3-(4-trifluoromethoxy-benzoyl)-thiophen-2-ylcarbamoyl]-methylsulfanyl}-acetic acid] was 100 to 1000 nM.
The value for `CCc1cc(C(=O)c2ccc(F)cc2)c(NC(=O)CSc2ccc(OCC(=O)O)cc2)s1` [Example 135, (4-{[5-Ethyl-3-(4-fluoro-benzoyl)-thiophen-2-ylcarbamoyl]-methylsulfanyl}-phenoxy)-acetic acid] was 1000 to 30000 nM; that for `CCc1cc(C(=O)c2ccc(Cl)cc2)c(NC(=O)CSc2ccc(OCC(=O)O)cc2)s1` [Example 136, (4-{[3-(4-Chloro-benzoyl)-5-ethyl-thiophen-2-ylcarbamoyl]-methylsulfanyl}-phenoxy)-acetic acid] was 1000 to 30000 nM.
For `CCc1cc(C(=O)c2ccc(F)cc2)c(NC(=O)CSc2ccc(OC(C)(C)C(=O)O)cc2)s1` [Example 137, 2-(4-{[5-Ethyl-3-(4-fluoro-benzoyl)-thiophen-2-ylcarbamoyl]-methylsulfanyl}-phenoxy)-2-methyl-propionic acid], the EC50 was in the range of 100 to 1000 nM.
The value for `CCc1cc(C(=O)c2ccc(Cl)cc2)c(NC(=O)CSc2ccc(OC(C)(C)C(=O)O)cc2)s1` [Example 138, 2-(4-{[3-(4-Chloro-benzoyl)-5-ethyl-thiophen-2-ylcarbamoyl]-methylsulfanyl}-phenoxy)-2-methyl-propionic acid] was 100 to 1000 nM.
The value for `CCc1cc(C(=O)c2nc3ccccc3s2)c(NC(=O)CSCC(=O)O)s1` [Example 139, {[3-(Benzothiazole-2-carbonyl)-5-ethyl-thiophen-2-ylcarbamoyl]-methylsulfanyl}-acetic acid] was 1000 to 30000 nM; that for `CCc1cc(C(=O)c2cc3ccccc3o2)c(NC(=O)CSCC(=O)O)s1` [Example 140, {[3-(Benzofuran-2-carbonyl)-5-ethyl-thiophen-2-ylcarbamoyl]-methylsulfanyl}-acetic acid] was 1000 to 30000 nM; that for `Cc1cc(C(=O)c2ccc(OC(F)(F)F)cc2)c(NC(=O)CSc2ccc(OCC(=O)O)cc2)s1` [Example 141, (4-{[5-Methyl-3-(4-trifluoromethoxy-benzoyl)-thiophen-2-ylcarbamoyl]-methylsulfanyl}-phenoxy)-acetic acid] was under 100 nM.
The value for `CCc1cc(C(=O)c2ccc(OC(F)(F)F)c(Cl)c2)c(NC(=O)CSCC(=O)O)s1` [Example 142, {[3-(3-Chloro-4-trifluoromethoxy-benzoyl)-5-ethyl-thiophen-2-ylcarbamoyl]-methylsulfanyl}-acetic acid] was under 100 nM; that for `CCc1cc(C(=O)c2cccc(OC(F)(F)F)c2)c(NC(=O)CSCC(=O)O)s1` [Example 143, {[5-Ethyl-3-(3-trifluoromethoxy-benzoyl)-thiophen-2-ylcarbamoyl]-methylsulfanyl}-acetic acid] was 1000 to 30000 nM.
For `CCc1cc(C(=O)c2cc(C)n(C)n2)c(NC(=O)CSCC(=O)O)s1` [Example 144, {[3-(1,5-Dimethyl-1H-pyrazole-3-carbonyl)-5-ethyl-thiophen-2-ylcarbamoyl]-methylsulfanyl}-acetic acid], the EC50 lay in the range of 1000 to 30000 nM.
The value for `CCc1cc(C(=O)c2ccc(-c3ccccn3)cc2)c(NC(=O)CSCC(=O)O)s1` [Example 145, {[5-Ethyl-3-(4-pyridin-2-yl-benzoyl)-thiophen-2-ylcarbamoyl]-methylsulfanyl}-acetic acid] was 100 to 1000 nM.
As for `CCc1cc(C(=O)c2ccc(OC(F)(F)F)cc2)c(NC(=O)CCC(C)(C)C(=O)O)s1` [Example 146, 4-[5-Ethyl-3-(4-trifluoromethoxy-benzoyl)-thiophen-2-ylcarbamoyl]-2,2-dimethyl-butyric acid], the EC50 is under 100 nM.
Turning to `CCc1cc(C(=O)c2ccc(Cl)cc2)c(NC(=O)CCC(C)(C)C(=O)O)s1` [Example 147, 4-[3-(4-Chloro-benzoyl)-5-ethyl-thiophen-2-ylcarbamoyl]-2,2-dimethyl-butyric acid], the EC50 fell in the range of 100 to 1000 nM.
`CCc1cc(C(=O)c2ccc(OC(F)(F)F)c(F)c2)c(NC(=O)CCC(C)(C)C(=O)O)s1` [Example 148, 4-[5-Ethyl-3-(3-fluoro-4-trifluoromethoxy-benzoyl)-thiophen-2-ylcarbamoyl]-2,2-dimethyl-butyric acid] came in with an EC50 of 100 to 1000 nM.
The value for `CCc1cc(C(=O)c2cc3ccccc3n2C)c(NC(=O)CSCC(=O)O)s1` [Example 149, {[5-Ethyl-3-(1-methyl-1H-indole-2-carbonyl)-thiophen-2-ylcarbamoyl]-methylsulfanyl}-acetic acid] was 1000 to 30000 nM; that for `CCc1cc(C(=O)c2cc3cc(OC(F)(F)F)ccc3n2C)c(NC(=O)CSCC(=O)O)s1` [Example 150, {[5-Ethyl-3-(1-methyl-5-trifluoromethoxy-1H-indole-2-carbonyl)-thiophen-2-ylcarbamoyl]-methylsulfanyl}-acetic acid] was under 100 nM; that for `CCc1cc(C(=O)c2cc3cc(Cl)ccc3n2C)c(NC(=O)CSCC(=O)O)s1` [Example 151, {[3-(5-Chloro-1-methyl-1H-indole-2-carbonyl)-5-ethyl-thiophen-2-ylcarbamoyl]-methylsulfanyl}-acetic acid] was under 100 nM.
Under `CCc1cc(C(=O)c2cc3cc(OC(F)(F)F)ccc3n2C)c(NC(=O)CCC(C)(C)C(=O)O)s1` [Example 152, 4-[5-Ethyl-3-(1-methyl-5-trifluoromethoxy-H-indole-2-carbonyl)-thiophen-2-ylcarbamoyl]-2,2-dimethyl-butyric acid] stands under 100 nM; under `CCc1cc(C(=O)c2nc3ccc(OC(F)(F)F)cc3s2)c(NC(=O)CSCC(=O)O)s1` [Example 153, {[5-Ethyl-3-(6-trifluoromethoxy-benzothiazole-2-carbonyl)-thiophen-2-ylcarbamoyl]-methylsulfanyl}-acetic acid], 100 to 1000 nM; under `CCc1cc(C(=O)c2nc3ccc(Cl)cc3s2)c(NC(=O)CSCC(=O)O)s1` [Example 154, {[3-(6-Chloro-benzothiazole-2-carbonyl)-5-ethyl-thiophen-2-ylcarbamoyl]-methylsulfanyl}-acetic acid], 100 to 1000 nM.
In the case of `CCc1cc(C(=O)c2nc3cc(Cl)ccc3s2)c(NC(=O)CSCC(=O)O)s1` [Example 155, {[3-(5-Chloro-benzothiazole-2-carbonyl)-5-ethyl-thiophen-2-ylcarbamoyl]-methylsulfanyl}-acetic acid], the EC50 was in the range of 100 to 1000 nM.
Under `CCc1cc(C(=O)c2ccc3cc(Cl)ccc3n2)c(NC(=O)CSCC(=O)O)s1` [Example 156, {[3-(6-Chloro-quinoline-2-carbonyl)-5-ethyl-thiophen-2-ylcarbamoyl]-methylsulfanyl}-acetic acid] stands 100 to 1000 nM.
Under `CCc1cc(C(=O)c2cn(C)c3ccc(Cl)cc23)c(NC(=O)CSCC(=O)O)s1` [Example 157, {[3-(5-Chloro-1-methyl-1H-indole-3-carbonyl)-5-ethyl-thiophen-2-ylcarbamoyl]-methylsulfanyl}-acetic acid] stands 100 to 1000 nM; under `CCc1cc(C(=O)c2ccc(OC(F)(F)F)cc2)c(NC(=O)C(C)NCC(=O)O)s1` (centres unmarked) [Example 158, {1-[5-Ethyl-3-(4-trifluoromethoxy-benzoyl)-thiophen-2-ylcarbamoyl]-ethylamino}-acetic acid], 100 to 1000 nM.
Consider `CCc1cc(C(=O)c2ccc(OC(F)(F)F)cc2)c(NC(=O)CN2CCCC(C(=O)O)C2)s1` (centres unmarked) [Example 159, 1-{[5-Ethyl-3-(4-trifluoromethoxy-benzoyl)-thiophen-2-ylcarbamoyl]-methyl}-piperidine-3-carboxylic acid], for which the 50% effective concentration (EC50) lay within 100 to 1000 nM.
In the case of `CCc1cc(C(=O)c2ccc(OC(F)(F)F)cc2)c(NC(=O)CN[C@@H](C)C(=O)O)s1` [Example 160, (S)-2-({[5-Ethyl-3-(4-trifluoromethoxy-benzoyl)-thiophen-2-ylcarbamoyl]-methyl}-amino)-propionic acid], the concentration for a half-maximal effect (EC50) was 100 to 1000 nM.
Under `CCc1cc(C(=O)c2ccc(OC(F)(F)F)cc2)c(NC(=O)CN[C@H](C)C(=O)O)s1` [Example 161, (R)-2-({[5-Ethyl-3-(4-trifluoromethoxy-benzoyl)-thiophen-2-ylcarbamoyl]-methyl}-amino)-propionic acid] stands 100 to 1000 nM.
Molecule `CCc1cc(C(=O)c2ccc(OC(F)(F)F)cc2)c(NC(=O)CN2CCC(C(=O)O)C2)s1` (centres unmarked) [Example 162, 1-{[5-Ethyl-3-(4-trifluoromethoxy-benzoyl)-thiophen-2-ylcarbamoyl]-methyl}-pyrrolidine-3-carboxylic acid] returned an EC50 of 100 to 1000 nM.
Under `CCc1cc(C(=O)c2ccc(OC(F)(F)F)cc2)c(NC(=O)CN2CCC(C(=O)O)CC2)s1` [Example 163, 1-{[5-Ethyl-3-(4-trifluoromethoxy-benzoyl)-thiophen-2-ylcarbamoyl]-methyl}-piperidine-4-carboxylic acid] stands 100 to 1000 nM.
